In patent US8722849B2, “Polypeptides” (Novo Nordisk A/S, priority 2011, dated 2014):
Values after ≈ are worked out from the molar mass of the structure shown. Like-named read-outs stand apart in the source and are kept apart here. Starred links: 1 amine or outer side, 2 acyl side, 3 side chain; linkers in the order of their positions; H or OH if unused. Positions of bridges follow the written chain, without caps; N, C: chain ends. Residues, ends and D or L forms follow the SMILES beside them. *: point of attachment. C20 diacid = O=C(O)CCCCCCCCCCCCCCCCCCC(=O)*; γGlu = O=C(O)[C@H](CCC(=O)[*:2])N[*:1]

Tests used:
[1] = target: T1, human amylin receptor (amylin 3(a) receptor: human calcitonin receptor + RAMP-3) (Homo sapiens, UniProt O60896+P30988); assay: Assay (II)a functional CRE-luciferase assay, human amylin receptor; format: cell-based; conditions: Table 2; BHK amylin 3(a)-receptor/CRE-luc cells
T1 construct: expressed in transfected cells; host or cells: BHK570
T1 sequence (P30988 25-474): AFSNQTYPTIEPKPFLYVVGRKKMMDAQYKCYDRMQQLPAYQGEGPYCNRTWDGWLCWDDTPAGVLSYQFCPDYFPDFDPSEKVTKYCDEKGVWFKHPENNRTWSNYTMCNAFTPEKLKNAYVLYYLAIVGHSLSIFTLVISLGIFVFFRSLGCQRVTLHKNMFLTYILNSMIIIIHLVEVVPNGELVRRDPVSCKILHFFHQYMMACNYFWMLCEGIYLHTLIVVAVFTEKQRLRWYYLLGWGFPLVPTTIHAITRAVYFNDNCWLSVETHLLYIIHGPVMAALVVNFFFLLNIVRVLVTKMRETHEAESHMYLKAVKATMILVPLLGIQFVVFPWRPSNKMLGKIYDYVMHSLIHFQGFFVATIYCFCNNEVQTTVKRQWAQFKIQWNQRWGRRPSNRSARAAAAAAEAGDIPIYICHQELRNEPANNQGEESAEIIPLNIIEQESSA
T1 sequence (O60896 24-148 partner): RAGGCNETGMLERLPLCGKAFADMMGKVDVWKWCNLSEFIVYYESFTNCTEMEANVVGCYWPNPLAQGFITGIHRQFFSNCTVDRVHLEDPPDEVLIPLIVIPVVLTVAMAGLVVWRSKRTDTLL

[2] = target: T2, human calcitonin receptor (Homo sapiens, UniProt P30988); assay: Assay (II)a functional CRE-luciferase assay, human calcitonin receptor; format: cell-based; conditions: Table 7; human calcitonin (CTa) receptor
T2 construct: expressed in transfected cells; host or cells: BHK570
T2 sequence (P30988 25-474): T1 sequence (P30988 25-474)

[3] = Assay (III) ThT fibrillation assay for physical stability; format: physicochemical
How it was run: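 Freshly prepared formulations, pH-adjusted, with 1 μM ThT; four or eight replicates incubated at 37 °C under 960 rpm orbital shaking. Fluorescence (ex 444/em 485 nm) read every 20 min; […]. Peptide concentration measured by RP-HPLC before and after the run.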

[4] = Assay (IV) determination of solubility; format: physicochemical
How it was run: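 Solubility is measured across pH 3.0–8.0 by mixing a ~500 nmol/ml aqueous polypeptide stock 1:1 with 100 mM glycylglycine or bistrispropane buffers. Samples stand 18 hours at room temperature, then are centrifuged and the soluble concentration is determined by HPLC.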

[5] = bistrispropane buffer, pH 6, pH 6.0, read-out: Solubility pH 6.0
[6] = bistrispropane buffer, pH 6.5, pH 6.5, read-out: Solubility pH 6.5
[7] = bistrispropane buffer, pH 7, pH 7.0, 18 hours at room temperature, Table 3, read-out: Solubility pH 7.0
[8] = bistrispropane buffer, pH 7, pH 7.0, read-out: Solubility pH 7.0
[9] = bistrispropane buffer, pH 7.5, pH 7.5, read-out: Solubility pH 7.5
[10] = bistrispropane buffer, pH 8, pH 8.0, read-out: Solubility pH 8.0
[11] = glycylglycine buffer, pH 3, pH 3.0, read-out: Solubility pH 3.0
[12] = glycylglycine buffer, pH 4, pH 4.0, 18 hours at room temperature, Table 2, read-out: Solubility pH 4.0
[13] = glycylglycine buffer, pH 4, pH 4.0, read-out: Solubility pH 4.0
[14] = glycylglycine buffer, pH 5, pH 5.0, read-out: Solubility pH 5.0

With `CC[C@H](C)[C@H](NC(=O)[C@@H]1CCCN1C(=O)CNC(=O)[C@H](Cc1ccccc1)NC(=O)[C@H](CC(N)=O)NC(=O)[C@H](CC(=O)O)NC(=O)[C@H](CO)NC(=O)[C@H](CO)NC(=O)[C@H](Cc1c[nH]cn1)NC(=O)[C@H](Cc1c[nH]cn1)NC(=O)[C@H](CC(C)C)NC(=O)[C@H](Cc1ccccc1)NC(=O)[C@H](CCC(=O)O)NC(=O)[C@H](C)NC(=O)[C@H](CC(C)C)NC(=O)[C@H](CCCNC(=N)N)NC(=O)[C@H](CCC(N)=O)NC(=O)[C@@H](NC(=O)[C@H](C)NC(=O)[C@@H]1CSSC[C@H](NC(=O)[C@H](CCCCN)NC(=O)CC[C@H](NC(=O)CCCCCCCCCCCCCCCCCCC(=O)O)C(=O)O)C(=O)N[C@@H](CC(N)=O)C(=O)N[C@@H]([C@@H](C)O)C(=O)N[C@@H](C)C(=O)N[C@@H]([C@@H](C)O)C(=O)N1)[C@@H](C)O)C(=O)N[C@@H](CC(C)C)C(=O)N1CCC[C@H]1C(=O)N1CCC[C@H]1C(=O)N[C@H](C(=O)N[C@@H](CC(N)=O)C(=O)N[C@H](C(=O)NCC(=O)N[C@@H](CO)C(=O)N[C@@H](Cc1c[nH]cn1)C(=O)N[C@H](C(=O)N[C@@H](Cc1ccc(O)cc1)C(N)=O)[C@@H](C)O)C(C)C)[C@@H](C)O` [Example 128, N-alpha-[(S)-4-Carboxy-4-(19-carboxynonadecanoylamino)butyryl]-[Glu14,His17,Asp21,His35]-pramlintide] ({C20 diacid-γGlu}-KCNTATCATQRLAEFLHHSSDNFGPILPPTNVGSHTY-NH2; disulfide 2-7 (inferred); C-terminus assumed) as the compound, how does the EC50 [1] read?
Its EC50 is 0.291 nM.

And the EC50 [2]?
The EC50 was 0.266 nM.

What about the “ThT pH 4.0 lag time” value ([3]; ThT fibrillation assay) of the same compound?
Its value is over 45 h.

What about the “ThT pH 4.0 lag time (h)” value ([3]; ThT fibrillation assay) of the same compound?
Its value is over 45 h.

And the solubility at 18 h ([4]; pH 3.0, read-out: Solubility pH 3.0)?
The solubility at 18 h was over 200 µM.

What about the solubility at 18 h ([4]; pH 4.0, 18 hours at room temperature, Table 2, read-out: Solubility pH 4.0) of the same compound?
The solubility at 18 h was over 200 µM.

And the solubility at 18 h ([4]; pH 4.0, read-out: Solubility pH 4.0)?
The solubility at 18 h was over 200 µM.

What about the solubility at 18 h ([4]; pH 5.0, read-out: Solubility pH 5.0) of the same compound?
Its solubility at 18 h is over 200 µM.

And the solubility at 18 h ([4]; pH 6.0, read-out: Solubility pH 6.0)?
Its solubility at 18 h is over 200 µM.

And the solubility at 18 h ([4]; pH 6.5, read-out: Solubility pH 6.5)?
The solubility at 18 h was 114 µM (≈ 511 µg/mL).

What about the solubility at 18 h ([4]; pH 7.0, 18 hours at room temperature, Table 3, read-out: Solubility pH 7.0) of the same compound?
The solubility at 18 h was 140 µM (≈ 627 µg/mL).

And the solubility at 18 h ([4]; pH 7.0, read-out: Solubility pH 7.0)?
Its solubility at 18 h is 140 µM (≈ 627 µg/mL).

And the solubility at 18 h ([4]; pH 7.5, read-out: Solubility pH 7.5)?
The solubility at 18 h was over 200 µM.

And the solubility at 18 h ([4]; pH 8.0, read-out: Solubility pH 8.0)?
The solubility at 18 h was over 200 µM.

Which results are given for `CC[C@H](C)[C@H](NC(=O)[C@@H]1CCCN1C(=O)CNC(=O)[C@H](Cc1ccccc1)NC(=O)[C@H](CC(N)=O)NC(=O)[C@H](CCC(N)=O)NC(=O)[C@H](CO)NC(=O)[C@H](CO)NC(=O)[C@H](Cc1c[nH]cn1)NC(=O)[C@H](Cc1c[nH]cn1)NC(=O)[C@H](CC(C)C)NC(=O)[C@H](Cc1ccccc1)NC(=O)[C@H](CCC(=O)O)NC(=O)[C@H](C)NC(=O)[C@H](CC(C)C)NC(=O)[C@H](CCCNC(=N)N)NC(=O)[C@H](CCC(N)=O)NC(=O)[C@@H](NC(=O)[C@H](C)NC(=O)[C@@H]1CSSC[C@H](NC(=O)[C@H](CCCCN)NC(=O)[C@H](CCC(=O)O)NC(=O)CC[C@H](NC(=O)CCCCCCCCCCCCCCCCCCC(=O)O)C(=O)O)C(=O)N[C@@H](CC(N)=O)C(=O)N[C@@H]([C@@H](C)O)C(=O)N[C@@H](C)C(=O)N[C@@H]([C@@H](C)O)C(=O)N1)[C@@H](C)O)C(=O)N[C@@H](CC(C)C)C(=O)N1CCC[C@H]1C(=O)N1CCC[C@H]1C(=O)N[C@H](C(=O)N[C@@H](CC(N)=O)C(=O)N[C@H](C(=O)NCC(=O)N[C@@H](CO)C(=O)N[C@@H](Cc1c[nH]cn1)C(=O)N[C@H](C(=O)N[C@@H](Cc1ccc(O)cc1)C(N)=O)[C@@H](C)O)C(C)C)[C@@H](C)O` [Example 129, N-alpha-[(S)-4-Carboxy-4-(19-carboxynonadecanoylamino)butyryl]-Glu-[Glu14,His17,Gln21,His35]-pramlintide] ({C20 diacid-γGlu}-EKCNTATCATQRLAEFLHHSSQNFGPILPPTNVGSHTY-NH2; disulfide 3-8 (inferred); C-terminus assumed)?
EC50 [1]: 0.391 nM; EC50 [2]: 0.247 nM; ThT pH 4.0 lag time (h) ([3]; ThT fibrillation assay): 24 h; solubility at 18 h [4, 5]: > 200 µM; solubility at 18 h [4, 6]: 194 µM (≈ 897 µg/mL); solubility at 18 h [4, 7]: > 200 µM; solubility at 18 h [4, 8]: > 200 µM; solubility at 18 h [4, 9]: > 200 µM; solubility at 18 h [4, 10]: > 200 µM; solubility at 18 h [4, 11]: > 200 µM; solubility at 18 h [4, 12]: > 200 µM; solubility at 18 h [4, 13]: > 200 µM; solubility at 18 h [4, 14]: > 200 µM

What does the source list for `CC[C@H](C)[C@H](NC(=O)[C@@H]1CCCN1C(=O)CNC(=O)[C@H](Cc1ccccc1)NC(=O)[C@H](CC(N)=O)NC(=O)[C@H](CCC(N)=O)NC(=O)[C@H](CO)NC(=O)[C@H](CO)NC(=O)[C@H](Cc1c[nH]cn1)NC(=O)[C@H](Cc1c[nH]cn1)NC(=O)[C@H](CC(C)C)NC(=O)[C@H](Cc1ccccc1)NC(=O)[C@H](CCC(=O)O)NC(=O)[C@H](C)NC(=O)[C@H](CC(C)C)NC(=O)[C@H](CCCNC(=N)N)NC(=O)[C@H](CCC(N)=O)NC(=O)[C@@H](NC(=O)[C@H](C)NC(=O)[C@@H]1CSSC[C@H](NC(=O)[C@H](CCCCN)NC(=O)CC[C@H](NC(=O)CCCCCCCCCCCCCCCCCCC(=O)O)C(=O)O)C(=O)N[C@@H](CC(N)=O)C(=O)N[C@@H]([C@@H](C)O)C(=O)N[C@@H](C)C(=O)N[C@@H]([C@@H](C)O)C(=O)N1)[C@@H](C)O)C(=O)N[C@@H](CC(C)C)C(=O)N1CCC[C@H]1C(=O)N1CCC[C@H]1C(=O)N[C@H](C(=O)N[C@@H](CC(N)=O)C(=O)N[C@H](C(=O)NCC(=O)N[C@@H](CO)C(=O)N[C@@H](CC(N)=O)C(=O)N[C@H](C(=O)N1CCC[C@H]1C(N)=O)[C@@H](C)O)C(C)C)[C@@H](C)O` [Example 130, N-alpha-[(S)-4-Carboxy-4-(19-carboxynonadecanoylamino)butyryl]-[Glu14,His17,Gln21,Pro37]-pramlintide] ({C20 diacid-γGlu}-KCNTATCATQRLAEFLHHSSQNFGPILPPTNVGSNTP-NH2; disulfide 2-7 (inferred))?
EC50 [1]: 0.0555 nM; EC50 [2]: 0.0315 nM; ThT pH 4.0 lag time ([3]; Table 8): >45 h; ThT pH 4.0 lag time ([3]; Table 9): >45 h; ThT pH 4.0 lag time ([3]; ThT fibrillation assay): >45 h; ThT pH 4.0 lag time (h) ([3]; ThT fibrillation assay): >45 h; solubility at 18 h [4, 5]: > 200 µM; solubility at 18 h [4, 6]: > 200 µM; solubility at 18 h [4, 7]: > 200 µM; solubility at 18 h ([4]; bistrispropane buffer, pH 7, pH 7.0, Table 8, read-out: Solubility pH 7.0): > 200 µM; solubility at 18 h ([4]; bistrispropane buffer, pH 7, pH 7.0, Table 9, read-out: Solubility pH 7.0): > 200 µM; solubility at 18 h [4, 8]: > 200 µM; solubility at 18 h ([4]; bistrispropane buffer, pH 7.5, pH 7.5, Table 9, read-out: Solubility pH 7.5): > 200 µM; solubility at 18 h [4, 9]: > 200 µM; solubility at 18 h [4, 10]: > 200 µM; solubility at 18 h [4, 11]: > 200 µM; solubility at 18 h [4, 12]: > 200 µM; solubility at 18 h [4, 13]: > 200 µM; solubility at 18 h [4, 14]: > 200 µM
